Assay results taken from PubChem BioAssay AID330 (DTP/NCI, 2004).
Several values for one entry are separate records, joined by “and”; a condition that tells them apart may be missing. Equal values may be shown once. Toxic doses and inconclusive results are not listed.

Tested on: P388 leukemia ip, CD2F1 mice, survival T/C
Assay: NCI In Vivo Anticancer Drug Screen. Data for tumor model P388 Leukemia (intraperitoneal) in CD2F1 (CDF1) mice
Settings: endpoint: median survival time, higher = longer survival
Procedure, shortened: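 Mice carrying the transplanted tumor received test compound or vehicle. Survival was recorded in each group, and the value is the treated-group measurement divided by that of the vehicle-treated control group.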

[1] = dose: 60.0 mg/kg/injection, schedule: Q01DX005 (ip), vehicle: saline with Tween-80
[2] = dose: 120.0 mg/kg/injection, schedule: Q01DX005 (ip), vehicle: saline with Tween-80
[3] = dose: 50.0 mg/kg/injection, schedule: Q01DX005 (ip), vehicle: saline with Tween-80
[4] = dose: 100.0 mg/kg/injection, schedule: Q01DX005 (ip), vehicle: saline with Tween-80
[5] = dose: 200.0 mg/kg/injection, schedule: Q01DX005 (ip), vehicle: saline with Tween-80
[6] = dose: 50.0 mg/kg/injection, schedule: Q01DX009 (ip), vehicle: saline with Tween-80
[7] = dose: 100.0 mg/kg/injection, schedule: Q01DX009 (ip), vehicle: saline with Tween-80
[8] = dose: 200.0 mg/kg/injection, schedule: Q01DX009 (ip), vehicle: saline with Tween-80
[9] = dose: 100.0 mg/kg/injection, schedule: Q04DX003 (ip), vehicle: saline with Tween-80
[10] = dose: 200.0 mg/kg/injection, schedule: Q04DX003 (ip), vehicle: saline with Tween-80
[11] = dose: 400.0 mg/kg/injection, schedule: Q04DX003 (ip), vehicle: saline with Tween-80
[12] = dose: 100.0 mg/kg/injection, schedule: Q01DX001 (ip), vehicle: saline with Tween-80
[13] = dose: 60.0 mg/kg/injection, schedule: Q01DX005 (ip), vehicle: saline
[14] = dose: 120.0 mg/kg/injection, schedule: Q01DX005 (ip), vehicle: saline
[15] = dose: 240.0 mg/kg/injection, schedule: Q01DX005 (ip), vehicle: saline
[16] = dose: 25.0 mg/kg/injection, schedule: Q01DX001 (ip), vehicle: saline with Tween-80
[17] = dose: 50.0 mg/kg/injection, schedule: Q01DX001 (ip), vehicle: saline with Tween-80
[18] = dose: 200.0 mg/kg/injection, schedule: Q01DX001 (ip), vehicle: Klucel (hydroxypropylcellulose) (HPC)
[19] = dose: 400.0 mg/kg/injection, schedule: Q01DX001 (ip), vehicle: Klucel (hydroxypropylcellulose) (HPC)

O=[N+]([O-])c1cnccc1-n1nnc2ccccc21
T/C [1]: 96 % of control
T/C [2]: 96 % of control
T/C (dose: 240.0 mg/kg/injection, schedule: Q01DX005 (ip), vehicle: saline with Tween-80): 104 % of control

Cc1ccc(-n2c(=S)n(-c3ccccc3C)c3nc4ccccc4nc2/c3=N\Nc2ccccc2)cc1
T/C [1]: 100 % of control
T/C [2]: 93 % of control

COc1cc(/C=N/n2c(-c3ccccc3)nc3ccccc3c2=O)cc(Br)c1O
T/C (dose: 60.0 mg/kg/injection, schedule: Q01DX005 (ip), vehicle: Klucel (hydroxypropylcellulose) (HPC)): 89 % of control
T/C (dose: 120.0 mg/kg/injection, schedule: Q01DX005 (ip), vehicle: Klucel (hydroxypropylcellulose) (HPC)): 87 % of control
T/C (dose: 240.0 mg/kg/injection, schedule: Q01DX005 (ip), vehicle: Klucel (hydroxypropylcellulose) (HPC)): 87 % of control

COc1cc(C)c(O)c(C/C=C(\C)CC2=C[C@@]3(C)CCC[C@@]3(C)[C@]3(C=CC(C)(C)O3)O2)c1
T/C (dose: 10.0 mg/kg/injection, schedule: Q01DX005 (ip), vehicle: saline with Tween-80): 94 % of control
T/C (dose: 20.0 mg/kg/injection, schedule: Q01DX005 (ip), vehicle: saline with Tween-80): 99 % of control
T/C (dose: 40.0 mg/kg/injection, schedule: Q01DX005 (ip), vehicle: saline with Tween-80): 99 % of control

CN1C(=S)NC2C(O)C(O)C(CO)OC21 (configuration not stated)
T/C [3]: 97 % of control
T/C [4]: 99 % of control
T/C [5]: 99 % of control

CCN(CC#N)c1ccc(C=Nc2ccc(OC)cc2OC)cc1
T/C [6]: 91 % of control
T/C [7]: 93 % of control
T/C [8]: 97 % of control

O=C(O)C(Cc1ccc(C(=O)C(F)(F)F)cc1)NC(=O)C(F)(F)F (configuration not stated)
T/C [9]: 100 % of control
T/C [10]: 103 % of control
T/C [11]: 99 % of control

CSC(=S)n1nc(-c2ccccc2)c(N=Nc2cccc(Cl)c2Cl)c1-c1ccccc1
T/C [12]: 87 % of control
T/C (dose: 200.0 mg/kg/injection, schedule: Q01DX001 (ip), vehicle: saline with Tween-80): 87 % of control
T/C (dose: 400.0 mg/kg/injection, schedule: Q01DX001 (ip), vehicle: saline with Tween-80): 97 % of control

COC1(OC)C=NNc2ncnn21
T/C [13]: 103 % of control
T/C [14]: 104 % of control
T/C [15]: 105 % of control

O=C(c1ccc2c(c1)OCO2)S(=O)(=O)O
T/C [13]: 102 % of control
T/C [14]: 96 % of control
T/C [15]: 97 % of control

Cc1cccc(Nc2nnc3nc(-c4ccccc4)c(-c4ccccc4)nn23)c1
T/C [16]: 94 % of control
T/C [17]: 100 % of control
T/C [12]: 91 % of control and 95 % of control

COc1ccc(C2=[N+]([O-])C(C)(C)C(c3ccccc3)C2)cc1 (configuration not stated)
T/C (dose: 50.0 mg/kg/injection, schedule: Q01DX009 (ip), vehicle: Klucel (hydroxypropylcellulose) (HPC)): 97 % of control
T/C (dose: 100.0 mg/kg/injection, schedule: Q01DX009 (ip), vehicle: Klucel (hydroxypropylcellulose) (HPC)): 101 % of control
T/C (dose: 200.0 mg/kg/injection, schedule: Q01DX009 (ip), vehicle: Klucel (hydroxypropylcellulose) (HPC)): 100 % of control

Cc1ccc2nc(C[n+]3cccc4ccccc43)ccc2c1
T/C (dose: 0.38 mg/kg/injection, schedule: Q01DX005 (ip), vehicle: saline): 107 % of control
T/C (dose: 0.75 mg/kg/injection, schedule: Q01DX005 (ip), vehicle: saline with Tween-80): 113 % of control
T/C (dose: 0.75 mg/kg/injection, schedule: Q01DX005 (ip), vehicle: saline): 115 % of control and 122 % of control
T/C (dose: 1.5 mg/kg/injection, schedule: Q01DX005 (ip), vehicle: saline with Tween-80): 115 % of control
T/C (dose: 1.5 mg/kg/injection, schedule: Q01DX005 (ip), vehicle: saline): 116 % of control
T/C (dose: 3.0 mg/kg/injection, schedule: Q01DX005 (ip), vehicle: saline with Tween-80): 100 % of control
T/C (dose: 3.0 mg/kg/injection, schedule: Q01DX005 (ip), vehicle: saline): 114 % of control and 116 % of control
T/C (dose: 3.12 mg/kg/injection, schedule: Q01DX005 (ip), vehicle: saline with Tween-80): 117 % of control

COc1cc(OC)c(/C=C/c2c3ccccc3cc[n+]2C)c(OC)c1
T/C (dose: 0.39 mg/kg/injection, schedule: Q01DX009 (ip), vehicle: saline with Tween-80): 108 % of control
T/C (dose: 0.78 mg/kg/injection, schedule: Q01DX009 (ip), vehicle: saline with Tween-80): 121 % of control
T/C (dose: 3.13 mg/kg/injection, schedule: Q01DX009 (ip), vehicle: saline with Tween-80): 152 % of control

COc1cc([C@@H]2c3cc4c(c(O)c3C[C@H]3COC(=O)[C@@H]32)OCO4)cc(OC)c1O
T/C (dose: 0.25 mg/kg/injection, schedule: Q01DX009 (ip), vehicle: suspension in saline): 121 % of control
T/C (dose: 1.0 mg/kg/injection, schedule: Q01DX009 (ip), vehicle: saline): 150 % of control
T/C (dose: 1.0 mg/kg/injection, schedule: Q01DX009 (ip), vehicle: suspension in saline): 99 % of control

CCCCNC(=O)Oc1ccc(OCc2ccccc2)cc1
T/C [9]: 100 % of control
T/C [10]: 95 % of control
T/C [11]: 90 % of control

OCC(O)C(O)C(O)Cc1ccc(O)cc1O (configuration not stated)
T/C (dose: 50.0 mg/kg/injection, schedule: Q01DX009 (ip), vehicle: saline): 98 % of control
T/C (dose: 100.0 mg/kg/injection, schedule: Q01DX009 (ip), vehicle: saline): 106 % of control
T/C (dose: 200.0 mg/kg/injection, schedule: Q01DX009 (ip), vehicle: saline): 104 % of control

O=c1cc(-c2ccc(OCc3ccccc3)c(-c3c(OCc4ccccc4)cc(OCc4ccccc4)c4c(=O)cc(-c5ccc(OCc6ccccc6)cc5)oc34)c2)oc2cc(OCc3ccccc3)cc(OCc3ccccc3)c12
T/C [16]: 93 % of control
T/C [17]: 89 % of control
T/C [12]: 87 % of control
T/C [18]: 89 % of control
T/C [19]: 88 % of control

COC(=O)/C=C(/Nc1c(Cl)sc2ccccc2c1=O)C(=O)OC
T/C [3]: 97 % of control
T/C [4]: 97 % of control
T/C [5]: 95 % of control

CN(C)c1ccc2c(N(C)C)cc(N(C)C)[n+](C)c2c1
T/C (dose: 0.78 mg/kg/injection, schedule: Q01DX009 (ip), vehicle: distilled water + Tween-80 + alcohol): 106 % of control
T/C (dose: 1.56 mg/kg/injection, schedule: Q01DX009 (ip), vehicle: distilled water + Tween-80 + alcohol): 115 % of control

CCOC(=O)/C=C(/C)Sc1cc(O)c2ccccc2c1O
T/C (dose: 6.25 mg/kg/injection, schedule: Q01DX009 (ip), vehicle: saline with Tween-80): 100 % of control

Cc1ccccc1C1SCC(=O)N1c1ccccn1 (configuration not stated)
T/C [6]: 104 % of control
T/C [7]: 101 % of control
T/C [8]: 95 % of control

Clc1ccc2c(NCC3CCCN4CCCCC34)ccnc2c1 (configuration not stated)
T/C (dose: 50.0 mg/kg/injection, schedule: Q01DX005 (ip), vehicle: Klucel (hydroxypropylcellulose) (HPC)): 104 % of control
T/C (dose: 100.0 mg/kg/injection, schedule: Q01DX005 (ip), vehicle: Klucel (hydroxypropylcellulose) (HPC)): 101 % of control

C[C@H](N)[C@@H](O)/C=C/c1ccccc1
T/C (dose: 10.0 mg/kg/injection, schedule: Q01DX005 (ip), vehicle: saline): 98 % of control
T/C (dose: 20.0 mg/kg/injection, schedule: Q01DX005 (ip), vehicle: saline): 100 % of control
T/C (dose: 40.0 mg/kg/injection, schedule: Q01DX005 (ip), vehicle: saline): 100 % of control

C[CH2][Sn]([Cl])([Cl])[CH2]C
T/C (dose: 1.56 mg/kg/injection, schedule: Q04DX003 (ip), vehicle: saline): 104 % of control
T/C (dose: 3.12 mg/kg/injection, schedule: Q04DX003 (ip), vehicle: saline): 111 % of control and 113 % of control and 116 % of control
T/C (dose: 6.25 mg/kg/injection, schedule: Q04DX003 (ip), vehicle: saline): 118 % of control [middle of 5 runs]
T/C (dose: 12.5 mg/kg/injection, schedule: Q04DX003 (ip), vehicle: saline): 121 % of control and 101 % of control and 115 % of control
T/C (dose: 25.0 mg/kg/injection, schedule: Q04DX003 (ip), vehicle: saline): 153 % of control

S=C(S)C1=C(NCCCCCCNC2=C(C(=S)S)CCC2)CCC1
T/C (dose: 100.0 mg/kg/injection, schedule: Q01DX001 (ip), vehicle: Klucel (hydroxypropylcellulose) (HPC)): 100 % of control
T/C [18]: 94 % of control
T/C [19]: 100 % of control
